Experiments:
human PBMCs [1] = assay: Cytokine/chemokine secretion in human PBMCs (MSD V-PLEX); type: cell-based; conditions: for proinflammatory cytokine/chemokine responses compared to m1Ψ-modified mRNA: lipid-complexed U-containing mRNA, even at lowest dose 0.5 μg/ml
Procedure: Human buffy coats from healthy individuals were obtained from the Faculty of Medicine of Johannes Gutenberg University, Mainz and used to isolate peripheral blood mononuclear cells (PBMCs) on a Ficoll-Paque™ PLUS (Cytiva, Marlborough, MA, USA) density gradient. In preparation for mRNA transfection, cryopreserved PBMCs were thawed and seeded into 96-well plates at a density of 5×10^5 cells per well in 190 μL RPMI medium supplemented with 1% non-essential amino acids (NEAA), 1% sodium pyruvate and 10% Fetal Bovine Serum (Merck, Germany). Cells were maintained at 37° C. with 5% CO2 until transfection with 0.5, 1.5, 5.0 and 15 μg/ml lipoplex-formulated EPO mRNA (LPX-RNA), as described in Kranz, L. M., et al. (2016) Nature, 534, 396-401. The complexed RNA (10 μl per well) was added in triplicates and supernatants were collected at 24 h after transfection to perform single cell cytotoxicity assay and to measure the cytokine/chemokine profile. To determine the cell viability and the production of selected cytokines/chemokines, supernatants from human PBMCs transfected with LPX-RNA were subjected to XTT cytotoxicity test using Cell Proliferation Kit II (Sigma-Aldrich) and cytokine/chemokine profile analysis using the Meso Scale Discovery V-PLEX Custom Human Biomarkers Proinflammatory and Chemokine Panel (Meso Scale Diagnostics—MSD, Rockville, MD, USA) according to the manufacturer's instructions, respectively. In regards of cytokine/chemokine profile analysis, a sample dilution of 1:5 (supernatant:MSD diluent) was used in each experiment. The levels of IL-6 (Interleukin 6), TNF-α (Tumor necrosis factor alpha), IL-1 (Interleukin 1 beta), IFN-γ (Interferon gamma), MCP-1 (Monocyte Chemoattractant Protein-1), […] (Macrophage inflammatory protein 1 beta) and IL-10 (Interleukin 10) were quantified 24 h after the mRNA transfection. […] This low immunogenicity can be directly attributed to the nucleoside modifications incorporated into the mRNA. To illustrate this, cells treated with lipid-complexed U-containing mRNA capped with compound I′-1, CC114 and CC413 induced much higher proinflammatory cytokine/chemokine responses even at their lowest dose (0.5 μg/ml) when compared to m1Ψ-modified mRNA (FIG. 6).
To test the effect of the cap types and mRNA 5′end on immunogenicity in human peripheral blood monocyte cells (PBMCs) we compared changes in levels of cytokines and chemokines after application of Lipoplex (LPX)-formulated EPO mRNAs. First, we compared the impact of m1Ψ-mRNA capped with I′-6 containing a UAGU 5′end vs. CC413 (AGAAU 5′end) (FIG. 12). […] Second, we compared capped EPO uRNA with I′-6 or I′-1 (FIG. 14). In this case both mRNAs had the same TAGT 5′end. […] Thus, benefit of I′-6 in decreasing the immunogenicity and thus increasing safety was found when I′-6 was used.

[2] = system: human primary hepatocytes; assay: EPO secretion in human primary hepatocytes transfected with TransIT-EPO mRNA (ELISA); type: cell-based
Procedure: To measure the translational efficiency of EPO mRNA capped with compound I′-1, compound I′-6, CC114, and CC413 in vitro, human primary hepatocytes were seeded into 96-well plates at a density of 2.5×10^4 cells per well and were transfected with mRNA samples (0.1 μg) complexed with TransIT reagent (Mirus Bio, Madison, WI, USA) in a final volume of 200 μL in InVitroGRO CP Medium (Sigma-Aldrich) supplemented with Thorpedo Antibiotic Mix (Sigma-Aldrich). To quantify EPO levels, the supernatant was collected at 1, 2, 3, 4, 5 and 6 day after transfection and EPO levels were analyzed by mouse Erythropoietin DuoSet ELISA kit (R&D Systems, Minneapolis, MN, USA) according to the manufacturer's instructions.
(§1) In each in vivo experiment in order to measure the translational efficiency and to determine the functionality of EPO mRNA capped with I′-1, I′-2, I′-3, I′-5, I′-6, I′-9, I′-12, I′-13, I′-16, CC114, and CC413 in vivo, female BALB/c mice from Jackson Laboratory (Bar Harbor, ME, USA) at the age of eight to ten weeks were used for in accordance with federal policies on animal research (Ethics approval number: G19-12-074). In each case, mice (n=3/group) were injected intravenously (i.v.) with 3 μg TransIT-complexed (Mirus Bio) EPO mRNAs in a final volume of 200 μL Dulbecco's modified Eagle medium (DMEM). Mice used as controls were injected with TransIT-reagent diluted in DMEM but without RNA. To measure hematocrits and EPO levels in the individual mice that were injected with EPO mRNA capped with I′-6, I′-1, CC114, and CC413 and complexed with TransIT-reagent, 18 μL of blood was collected at the indicated times (FIG. 8B) and centrifuged in Drummond microcaps glass capillary tubes (20 μl volume, Merck, Germany) as described (19). After determination of the hematocrit, capillary tubes were snapped open, and the plasma was collected to measure EPO levels and analyzed for mouse Erythropoietin DuoSet ELISA kit (R&D Systems) according to the manufacturer's instructions. […] EPO RNA containing m1Ψ modifications translated 2-3-fold, 5-fold, and 10-fold more than U-containing mRNAs at 6-24, 48 and 72 hours after injections, respectively. (FIG. 8A). […] To address translation of I′-6-capped mRNA in human primary hepatocytes, EPO level was measured from supernatants transfected using 0.1 μg/well TransIT-formulated I′-6- or CC114-capped uRNA (FIG. 13).
To test if various uridine (U) or pseudouridine (Ψ) derivatives of cap analogues can improve translation in human primary hepatocytes, we first measured EPO secretion after application of EPO-encoding Ψ-mRNA capped with compounds described herein analog bearing pseudouridine (I′-3) or CC413 (no modification). […] In addition, all tested modification bearing caps led to increase in EPO secretion at 24 h and 48 h when compared to the unmodified I′-1 (FIG. 16).

human PBMCs [3] = assay: XTT cytotoxicity test of PBMCs transfected with LPX-formulated EPO mRNA; type: cell-based; conditions: 24 h, up to 1 μg/well mRNA
Procedure: Human buffy coats from healthy individuals were obtained from the Faculty of Medicine of Johannes Gutenberg University, Mainz and used to isolate peripheral blood mononuclear cells (PBMCs) on a Ficoll-Paque™ PLUS (Cytiva, Marlborough, MA, USA) density gradient. In preparation for mRNA transfection, cryopreserved PBMCs were thawed and seeded into 96-well plates at a density of 5×10^5 cells per well in 190 μL RPMI medium supplemented with 1% non-essential amino acids (NEAA), 1% sodium pyruvate and 10% Fetal Bovine Serum (Merck, Germany). Cells were maintained at 37° C. with 5% CO2 until transfection with 0.5, 1.5, 5.0 and 15 μg/ml lipoplex-formulated EPO mRNA (LPX-RNA), as described in Kranz, L. M., et al. (2016) Nature, 534, 396-401. The complexed RNA (10 μl per well) was added in triplicates and supernatants were collected at 24 h after transfection to perform single cell cytotoxicity assay and to measure the cytokine/chemokine profile. […] The levels of IL-6 (Interleukin 6), TNF-α (Tumor necrosis factor alpha), IL-1 (Interleukin 1 beta), IFN-γ (Interferon gamma), MCP-1 (Monocyte Chemoattractant Protein-1), […] (Macrophage inflammatory protein 1 beta) and IL-10 (Interleukin 10) were quantified 24 h after the mRNA transfection. […]

BALB/c mice [4] = assay: Hematocrit in mice IV injected with 3 μg TransIT-complexed EPO mRNA; type: in vivo; conditions: D14 after injection
Procedure: (§2) To confirm in vitro data, female BALB/c mice from Jackson Laboratory (Bar Harbor, ME, USA) at the age of eight to ten weeks were used for in vivo experiment in accordance with federal policies on animal research (Ethics approval number: G18-12-027). Mice (n=3/group) were injected intravenously (i.v.) with 3 μg TransIT-complexed (Mirus Bio) EPO mRNAs in a final volume of 200 μL Dulbecco's modified Eagle medium (DMEM). Mice used as controls were injected with TransIT-reagent diluted in DMEM but without RNA. Mice were injected with EPO mRNA complexed with TransIT-reagent and EPO levels in plasma were measured using ELISA (FIG. 8A). Hematocrit was measured from 18 μl of blood that was collected at the indicated times using centrifugation in Drummond microcaps glass capillary tubes (20 μl volume, Merck, Germany) as described (20) (FIG. 8B). After determination of the hematocrit, capillary tubes were snapped open, and the plasma was collected to measure EPO levels and analyzed for mouse Erythropoietin DuoSet ELISA kit (R&D Systems) according to the manufacturer's instructions. […] EPO RNA containing m1Ψ translated two-fold more than U-containing mRNA at each time points (FIG. 8A). Both compound I′-1 and compound I′-6 are suitable for translation of the encoded protein and each cap analog can be used for synthesizing of non-replicating functional mRNAs (FIG. 8A, 8B).
as §1

BALB/c mice [5] = assay: Plasma EPO in mice IV injected with 3 μg TransIT-complexed EPO mRNA (ELISA); type: in vivo
Procedure: as §2, §1
To this end, we generated U-containing as well as m1Ψ-modified EPO RNA capped with cap analogs which belong to either the non-ARCA (I′-13) or ARCA (I′-6) classes. Moreover, the latter ones contain 2′-OMe (I′-5) or 3′-OMe (I′-6) at the ribose of the m7G moiety. Three μg of TransIT-complexed EPO mRNA capped with nucleoside modification-containing NeoCaps I′-13, I′-5 and I′-6 cap analogs were injected into mice intravenously. After that EPO level of plasma collected from mice was measured at 6, 24 and 48 hours after administration to compare the translational activity of mRNA capped with NeoCaps with U-containing or m1Ψ-modified mRNA capped with non-modified ARCA 3′OMe I′-1.
Plasma EPO level of mice injected with 3 μg of each TransIT-complexed mRNA was determined using murine EPO-specific ELISA at 6, 24, 48 and 72 hours after intravenous administration. […]

**Q.** Which results are given for COC1C(OP(=O)([O-])OC[C@H]2O[C@@H](n3ccc(=O)[nH]c3=O)C(O)C2O)[C@@H](COP(=O)(O)OP(=O)(O)OP(=O)(O)OC[C@H]2O[C@@H](n3c[n+](C)c4c(O)nc(N)nc43)C(O)C2OC)O[C@H]1n1cnc2c(N)ncnc21 (stereo partly drawn) [I′-1, m^7G(^3′-OMe)pppA(2′-OMe)pU]?
**A.** proinflammatory cytokine/chemokine responses compared to m1Ψ-modified mRNA (human PBMCs [1]): much higher; cytokines/chemokines, compared with CC413 (human PBMCs [1]; unmodified mRNA, 24 h): significantly higher; translation (EPO secretion) compared to CC413 ([2]; 0.1 μg/well TransIT-EPO mRNA, 24 hrs): higher translation; translation compared to CC413 ([2]; unmodified RNA, each time point after transfection (day 1-6)): higher translation; toxic effect on cell viability (XTT) (human PBMCs [3]): no toxic effect; decrease of hematocrit values from D14 (BALB/c mice [4]): not observed; translational capacity compared with m1Ψ in cap (I′-6) and mRNA (BALB/c mice [5]; U-containing mRNA, each time point): significantly lower; translation of ARCA analogs compared to non-ARCA caps CC114 and I′-13 (BALB/c mice [5]; regardless of the RNA modification): significantly better

**Q.** Which “level of EPO compared to CC413” value ([2]; EPO-encoding Ψ-mRNA, 24 h and 48 h) does the source give for COC1C(OP(=O)(O)OC[C@H]2O[C@@H](c3c[nH]c(=O)[nH]c3=O)C(O)C2O)[C@@H](COP(=O)(O)OP(=O)([O-])OP(=O)(O)OC[C@H]2O[C@@H](n3c[n+](C)c4c(O)nc(N)nc43)C(O)C2OC)O[C@H]1n1cnc2c(N)ncnc21 (stereo partly drawn) [I′-3, m^7G(^3′-OMe)pppA(2′-OMe)pΨ] here?
**A.** higher

**Q.** What about the “EPO level compared to I′-6” value (BALB/c mice [5]; m1Ψ-modified mRNA, 48 and 72 hours after injection) of the same molecule?
**A.** equal or slightly less

**Q.** What does the source list for COC1C(OP(=O)(O)OC[C@H]2O[C@@H](c3cn(C)c(=O)[nH]c3=O)C(O)C2O)[C@@H](COP(=O)(O)OP(=O)([O-])OP(=O)(O)OC[C@H]2O[C@@H](n3c[n+](C)c4c(O)nc(N)nc43)C(O)C2O)O[C@H]1n1cnc2c(N)ncnc21 (stereo partly drawn) [I′-13, m^7GpppA(2′-OMe)pm^1Ψ]?
**A.** translation of m1Ψ-mRNA capped with I′-13 relative to U-mRNA capped with CC114 (BALB/c mice [5]; 6 h after injection): 8 fold; translation of m1Ψ-mRNA capped with I′-13 relative to U-mRNA capped with CC114 (BALB/c mice [5]; 24 h after injection): 25 fold; translation compared to mRNA capped with non-modified ARCA cap (BALB/c mice [5]; each tested time point (6, 24, 48 h), regardless of the mRNA modification): at least two-fold better

**Q.** How did the “proinflammatory cytokine/chemokine responses compared to m1Ψ-modified mRNA” value (human PBMCs [1]) turn out when “(m2^7,3′-O)Gppp(m^2′-O)ApG [CC413, reference compound]” was run?
**A.** much higher

**Q.** And the “decrease of hematocrit values from D14” value (BALB/c mice [4])?
**A.** started to decrease at D14

**Q.** What about the “translational efficiency and biological activity (murine EPO, hematocrit %) of EPO mRNA” value (BALB/c mice [5]; FIG. 1, CC413 vs CC113) of the same molecule?
**A.** significantly better than CC113

**Q.** How did the “proinflammatory cytokine/chemokine responses compared to m1Ψ-modified mRNA” value (human PBMCs [1]) turn out when “(m^7)Gppp(m^2′-O)ApU [CC114, reference compound]” was run?
**A.** much higher

**Q.** What about the “decrease of hematocrit values from D14” value (BALB/c mice [4]) of the same molecule?
**A.** started to decrease at D14

— patent publication US20260109727A1, “RNA CONSTRUCTS AND USES THEREOF” (BioNTech SE, priority 2022, published 2026)
